In the experiment the test system is non-enzymatic incorporation of glucose into proteins (glycation) in human dermal fibroblasts (NDHF Pool PF2). Description: Non-enzymatic incorporation of glucose into proteins (glycation) in fibroblasts (Example 5). It is filed as cell-based. The following applies: 1 mg/ml, 15 days. The protocol: Material: • human dermal fibroblasts (NDHF Pool PF2) • culture medium: DMEM, 2 mM glutamine, 50 Ul/ml of penicillin, 50 μg/ml of streptomycin, 10% foetal calf serum (Life Technologies) • dry extract of Bauhinia forficata according to Example 4 (aqueous extraction), dissolved in sterile PBS • final concentrations tested: 0.3 mg/ml, 0.1 mg/ml, 0.03 mg/ml • reference: aminoguanidine 1 mg/ml
Human dermal fibroblasts are cultivated to confluence in cell culture medium (see above) in 25 cm^2 plates at 37° C. and 5% CO2. Collagen synthesis is stimulated by cultivation of the cells in the presence of vitamin C (final concentration: 20 μg/ml) for 96 hours. The cells are washed with PBS and lysed by serial freezing/thawing. The cells are treated with aqueous extract of Bauhinia forficata or aminoguanidine (and control: PBS) and labelled with 20 μCi/ml D-[5-^3H]-glucose (19 Ci/mmol), 703 Gbq/mmol) in the presence of 0.1 mg/ml of glucose. The treatment and labelling are carried out without interruption for 15 days at 37° C. and 5% CO2. At the end of the incubation, proteins of the extracellular matrix (principally collagen) are extracted by buffer (TRIS 50 mM, 4M guanidine, 5 mM EDTA, pH 8.0, 30 min). The total protein is precipitated by 20% (v/v) trichloroacetic acid, 0.66 mg/ml of albumin. The precipitates are recovered by filtration from a Skatron collector and washed copiously, firstly in 3% trichloroacetic acid, then with 70% ethanol. The glucose covalently bonded to the fibres of the extracellular matrix is finally measured by scintillation.

“And” between values parts separate entries of the source, which are not always exact repeats. Equal entries are not always repeated.

With `N=C(N)NN` [Aminoguanidine, aminoguanidine], the “reduction of glucose incorporation” value is given as 85%. The molecule further displayed a Mean cpm (n=3) of 3701 cpm. Also, the “cpm (glucose incorporated into proteins)” value (single replicates) was 2859 cpm and 3434 cpm and 4809 cpm. Under “Homo sapiens, Fibroblast, 360 h, read-out: % of control (glucose incorporation)”, the activity at 1000 µg/mL stood at 15%.

For the origin of these results see patent US20050019426A1, “Use of an aqueous or hydroalcoholic extract from bauhinia for the preparation of a composition” (priority 2003, published 2005).
